{"source": "patent US20250186396A1", "about": "“COMPOSITIONS AND METHODS FOR THE TREATMENT OF GLIOBLASTOMA WITH A DUAL TARGETING ANTI-TUMOR COMPOSITION” (Northwestern University, priority 2023, published 2025)", "key": {"[1]": {"tested_on": "U87, PTEN-KO SF763 cells and 005 GSCs", "experiment": "Proliferation (CFSE) and colony formation assays", "type": "cell-based", "conditions": "BAPN 200 μM or SR9009 5 μM", "protocol": "Proliferation (CFSE) assay. Cell proliferation was assessed using the CellTrace carboxy fluorescein succinimidyl ester (CFSE) Cell Proliferation Kit (Invitrogen, #C34554). Briefly, 1×10^6 cells were collected and incubated with CFSE working solution (1:1,000) for 20 minutes at 37° C. The staining was stopped by adding complete cell culture media. After washing, cells were cultured for 3 days with or without the treatment of BAPN (Sigma-Aldrich, #B-A3134, 200 μM), or SR9009 (Cayman, #11929, 5 μM) in the dark and used for flow cytometry analysis. The percentage of CFSE positive peaks over the undivided peak (generation 0) was analyzed using FlowJo v10.8.1.\nColony formation assay. 1×10^3 GBM cells were seeded in each well of 6-well plates with or without the treatment of BAPN (Sigma-Aldrich, #B-A3134, 200 μM), or SR9009 (Cayman, #11929, 5 μM). After 7-10 days, cells were fixed and stained with 0.5% crystal violet in 25% methanol for 1 hour. After three times washing by PBS, the plates were scanned, and the colony number was counted using ImageJ."}, "OLFML3": {"tested_on": "OLFML3", "experiment": "Immunoblots for OLFML3 in GBM cells and GSCs", "type": "cell-based, human and mouse", "conditions": "immunoblot", "protocol": "Cell Culture. The GBM cell lines U87, U251, SF763, LN229, and CT2A, as well as 293T cells were cultured in Dulbecco's Modified Eagle's Medium (DMEM; Gibco, #11995-065). The mouse glioma cell line GL261 cells and SIM-A9 microglia were cultured in Dulbecco's Modified Eagle Medium-Ham's F12 medium (Gibco, #10565-018). HMC3 microglia were cultured in Eagle's Minimum Essential Medium (ATCC, #30-2003). THP-1 macrophages were cultured in RPMI 1640 medium (Gibco, #11875093). All cell lines were cultured in the indicated medium containing 10% fetal bovine serum (FBS; Fisher Scientific, #16140071) and 1:100 antibiotic-antimycotic (Gibco, #15140-122), and were purchased from the American Type Culture Collection (ATCC). Human GSCs (GSC23 and GSC7-10) and mouse GBM tumor-derived 005 GSCs and QPP7 GSCs were cultured in neural stem cell (NSC) proliferation media (Millipore, #SCM005) containing 20 ng/mL epidermal growth factor (EGF; PeproTech, #AF-100-15) and basic fibroblast growth factor (bFGF; PeproTech, #100-18B). Human GSCs were gifted by Dr. Frederick F. Lang from the Brain Tumor Center (The University of Texas MD Anderson Cancer Center). 005 GSCs and QPP7 GSCs were provided by Dr. Samuel D. Rabkin (Massachusetts General Hospital) and Dr. Jian Hu (The University of Texas MD Anderson Cancer Center), respectively. PTEN CRISPR KO in SF763 and LN229 cells were generated. […]"}}, "data": [{"smiles": "N#CCCN", "note": "[BAPN, β-aminopropionitrile]", "values": [{"measurement": "GBM cell proliferation", "setting": "[1]", "result": "had no such effect"}, {"measurement": "expression of OLFML3", "setting": "OLFML3; human (U87, PTEN-KO SF763, GSC23, GSC7-10) and mouse (CT2A, 005 GSCs) cells, BAPN at indicated concentrations", "result": "increased"}]}, {"smiles": "CCOC(=O)N1CCC(CN(Cc2ccc(Cl)cc2)Cc2ccc([N+](=O)[O-])s2)C1", "note": "(stereo not shown) [SR9009]", "values": [{"measurement": "GBM cell proliferation", "setting": "[1]", "result": "impaired"}, {"measurement": "LOX or P65 inhibition-induced OLFML3 upregulation", "setting": "OLFML3; U87 and PTEN-KO SF763 cells, SR9009 5 μM with BAPN 200 μM or SC75741 5 μM", "result": "rescued"}]}]}
